Data taken from patent US12522596B2, “Compounds as GLP-1R agonists” (Terns Pharmaceuticals, Inc., priority 2021, dated 2026).
Where two headings read alike, the source gives them in different places.

Experiment: Pharmacokinetics in hGLP-1R mice after oral dosing
Format: in vivo, male C57BL/6J hGLP-1R mouse
Settings: male, C57BL/6J hGLP-1R, mouse, plasma, po; for concentration at 120 min: hGLP-1R mouse plasma collected at 120 min (IPGTT cohort); for MRT inf: read-out: MRT0-inf; for MRT last: read-out: MRT0-last; for AUC0-inf: read-out: AUC0-inf
Procedure: IPGTT (120 min)—PK bleeding: 40 μL blood samples (all treatment groups) were collected from mice under the jaw at IPGTT-120 min after blood glucose measurement into pre-chilled EDTA-2K tubes. Blood samples were processed for plasma by centrifugation at 4° C., 3200×g for 10 min. 15 μL plasma was stored at −80° C. for PK analysis. From 4 mice in Group 7 of the PD cohort, whole brain was collected after blood is harvested at 120 min post dose, rinsed with saline and patted dry and placed into a pre-weighed tube and stored at −80° C. collected for PK analysis.
PK bleeding group design is described in Table 9.
PK bleeding: 30 μL blood was collected at 0.25, 0.5, 1, 2, 4, and 8 h. Blood samples were processed for plasma by centrifugation at 4° C., 3200×g for 10 min. 12 μL plasma was collected at −80° C. for further analysis. From 3 mice in Group 7 of the PK cohort, whole brain was collected after blood is harvested at 8 hr post dose, rinsed with saline and patted dry and placed into a pre-weighed tube and stored at −80° C. collected for PK analysis.
For plasma: An aliquot of 3 μL sample was protein precipitated with 60 μL internal standard (100 ng/mL Labetalol & 100 ng/ml Dexamethasone & 100 ng/ml Tolbutamide & 100 ng/mL Verapamil & 100 ng/ml Glyburide & 100 ng/ml Celecoxib in ACN) and then the mixture was vortex-mixed for 10 min at 800 rpm and centrifuged for 15 min at 3220×g, 4° C.
The linear/log trapezoidal rule was applied in obtaining the PK parameters. Individual plasma concentration values that were below the lower limit of quantitation (LOQ) were excluded from the PK parameter calculation. The nominal dose levels and nominal sampling times were used in the calculation of all pharmacokinetic parameters.

[1] = 0.3 mg/kg, hGLP-1R mouse plasma, PO 0.3 mg/kg, read-out: Mean Concentration
[2] = 0.3 mg/kg, hGLP-1R mouse plasma, PO 0.3 mg/kg, individual animals, read-out: Concentration
[3] = 0.3 mg/kg, hGLP-1R mouse plasma, PO 0.3 mg/kg, individual mice
[4] = 0.3 mg/kg, hGLP-1R mouse plasma, PO 0.3 mg/kg, mean
[5] = 1 mg/kg, hGLP-1R mouse plasma, PO 1 mg/kg, individual animals, read-out: Concentration
[6] = 1 mg/kg, hGLP-1R mouse plasma, PO 1 mg/kg, read-out: Mean Concentration
[7] = 1 mg/kg, hGLP-1R mouse plasma, PO 1 mg/kg, individual mice
[8] = 1 mg/kg, hGLP-1R mouse plasma, PO 1 mg/kg, mean

N#Cc1ccc(COc2cccc(C3CCN(Cc4nc5ccc(C(=O)O)cc5n4C[C@@H]4CCO4)CC3)n2)c(F)c1 [Reference Compound A, reference compound]
concentration at 120 min (0.3 mg/kg, PO 0.3 mg/kg, read-out: Mean Concentration): 7.16 ng/mL
concentration at 0.25 h [1]: 24.9 ng/mL
concentration at 0.5 h [2]: 19.6 ng/mL
concentration at 0.5 h [1]: 17.3 ng/mL
concentration at 1 h [1]: 16 ng/mL
concentration at 2 h (0.3 mg/kg, hGLP-1R mouse plasma, PO 0.3 mg/kg): 3.37 ng/mL
concentration at 4 h [2]: < 1 ng/mL
MRT inf [3]: 0.943 h
MRT last [3]: 0.803 h
half-life (0.3 mg/kg, hGLP-1R mouse plasma, PO 0.3 mg/kg, individual mice, read-out: T1/2 (converted)): 28.9 min
Tmax (0.3 mg/kg, hGLP-1R mouse plasma, PO 0.3 mg/kg, individual mice, read-out: Tmax): 30 min
AUC0-inf [4]: 27.6 ng·h/mL
AUC(0-t) (0.3 mg/kg, hGLP-1R mouse plasma, PO 0.3 mg/kg, mean, read-out: AUC0-last): 24.5 ng·h/mL
Cmax (0.3 mg/kg, hGLP-1R mouse plasma, PO 0.3 mg/kg, mean, read-out: Cmax): 27 ng/mL
MRT inf [4]: 1.04 h
MRT last [4]: 0.82 h
half-life (0.3 mg/kg, hGLP-1R mouse plasma, PO 0.3 mg/kg, mean, read-out: T1/2 (converted)): 36.2 min
Tmax (0.3 mg/kg, hGLP-1R mouse plasma, PO 0.3 mg/kg, mean, read-out: Tmax): 25 min
AUC(0-t) (1 mg/kg, hGLP-1R mice, total, PO 1.0 mg/kg, read-out: AUClast Mean): 85.5 ng·h/mL
Cmax (1 mg/kg, hGLP-1R mice, total, PO 1.0 mg/kg, read-out: Cmax Mean): 49.7 ng/mL
Tmax (1 mg/kg, hGLP-1R mice, total, PO 1.0 mg/kg, read-out: Tmax Median): 30 min
concentration at 120 min (1 mg/kg, PO 1 mg/kg, read-out: Mean Concentration): 21.4 ng/mL
concentration at 0.25 h [5]: 43.5 ng/mL
concentration at 0.25 h [6]: 35.7 ng/mL
concentration at 0.5 h [5]: 62.8 ng/mL
concentration at 0.5 h [6]: 48.1 ng/mL
concentration at 1 h [6]: 39.5 ng/mL
concentration at 2 h (1 mg/kg, hGLP-1R mouse plasma, PO 1 mg/kg): 14.5 ng/mL
concentration at 4 h [5]: 3.59 ng/mL
concentration at 4 h [6]: 3.4 ng/mL
concentration at 8 h (1 mg/kg, hGLP-1R mouse plasma, PO 1 mg/kg, 8 h, read-out: Mean Concentration): 2.42 ng/mL
AUC0-inf [7]: 105 ng·h/mL
AUC(0-t) (1 mg/kg, hGLP-1R mouse plasma, PO 1 mg/kg, individual mice, read-out: AUC0-last): 101 ng·h/mL
Cmax (1 mg/kg, hGLP-1R mouse plasma, PO 1 mg/kg, individual mice, read-out: Cmax): 62.8 ng/mL
MRT last [7]: 1.3 h
Tmax (1 mg/kg, hGLP-1R mouse plasma, PO 1 mg/kg, individual mice, read-out: Tmax): 30 min
AUC0-inf [8]: 93.8 ng·h/mL
AUC(0-t) (1 mg/kg, hGLP-1R mouse plasma, PO 1 mg/kg, mean, read-out: AUC0-last): 85.5 ng·h/mL
Cmax (1 mg/kg, hGLP-1R mouse plasma, PO 1 mg/kg, mean, read-out: Cmax): 49.7 ng/mL
MRT inf [8]: 2.68 h
MRT last [8]: 1.81 h
half-life (1 mg/kg, hGLP-1R mouse plasma, PO 1 mg/kg, mean, read-out: T1/2 (converted)): 119 min
Tmax (1 mg/kg, hGLP-1R mouse plasma, PO 1 mg/kg, mean, read-out: Tmax): 40 min
Tmax (3 mg/kg, hGLP-1R mice, oral, across the doses tested (0.3, 1 and, for Compound 2, 3 mg/kg), read-out: median Tmax): 30 min
half-life (hGLP-1R male mice, oral, across doses, read-out: terminal T1/2): < 120 min
